In patent US6869946B2, “Substituted azabicyclic moieties for the treatment of disease” (Pfizer Inc, priority 2001, dated 2005) one finds Ki data, which are given here for five compounds.

pKi: −log10 of the molar value.

One may read the pKi as −log10 of the Ki, conventionally taken in molar units. Read a high pKi as a small Ki.

T1 sequence (Q05941 23-502): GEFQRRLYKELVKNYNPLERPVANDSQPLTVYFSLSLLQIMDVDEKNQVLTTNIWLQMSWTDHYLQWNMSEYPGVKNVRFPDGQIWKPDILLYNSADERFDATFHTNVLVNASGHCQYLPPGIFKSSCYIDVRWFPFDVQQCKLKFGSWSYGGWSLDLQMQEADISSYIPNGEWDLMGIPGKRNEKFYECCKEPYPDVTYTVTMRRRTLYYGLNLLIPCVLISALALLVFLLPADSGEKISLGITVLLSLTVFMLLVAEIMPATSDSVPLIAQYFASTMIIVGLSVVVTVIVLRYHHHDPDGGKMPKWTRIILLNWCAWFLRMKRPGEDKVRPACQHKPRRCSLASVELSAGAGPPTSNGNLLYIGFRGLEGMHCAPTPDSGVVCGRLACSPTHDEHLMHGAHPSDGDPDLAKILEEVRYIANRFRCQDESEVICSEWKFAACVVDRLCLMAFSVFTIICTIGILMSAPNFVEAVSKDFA

This test has as its target T1, α7 nAChR (Rattus norvegicus, UniProt Q05941).
T1 construct: brains (whole brain minus cerebellum) are dissected quickly, weighed and homogenized; from tissue; host or cells: rat brain (whole brain minus cerebellum) membranes
As to the kind of experiment: [3H]-MLA competition binding assay in rat brain membranes. To be noted: inhibition of [3H]-MLA binding, rat brain homogenate (whole brain minus cerebellum), Cheng-Prusoff. The procedure:
Materials and Methods for Identifying Binding Constants:
Membrane Preparation. Male Sprague-Dawley rats (300-350 g) are sacrificed by decapitation and the brains (whole brain minus cerebellum) are dissected quickly, weighed and homogenized in 9 volumes/g wet weight of ice-cold 0.32 M sucrose using a rotating pestle on setting 50 (10 up and down strokes). The homogenate is centrifuged at 1,000× g for 10 minutes at 4° C. The supernatant is collected and centrifuged at 20,000× g for 20 minutes at 4° C. The resulting pellet is resuspended to a protein concentration of 1-8 mg/mL. Aliquots of 5 mL homogenate are frozen at −80° C. until needed for the assay. On the day of the assay, aliquots are thawed at room temperature and diluted with Kreb's—20 mM Hepes buffer pH 7.0 (at room temperature) containing 4.16 mM NaHCO3, 0.44 mM KH2PO4, 127 MM NaCl, 5.36 mM KCl, 1.26 mM CaCl2, and 0.98 mM MgCl2, so that 25-150 μg protein are added per test tube. Protein concentration is determined by the Bradford method (Bradford, M. M., Anal. Biochem., 72, 248-254, 1976) using bovine serum albumin as the standard.
Binding Assay. For saturation studies, 0.4 mL homogenate are added to test tubes containing buffer and various concentrations of radioligand, and are incubated in a final volume of 0.5 mL for 1 hour at 25° C. Nonspecific binding was determined in tissues incubated in parallel in the presence of 1 μM MLA, added before the radioligand. In competition studies, drugs are added in increasing concentrations to the test tubes before addition of approximately 3.0 to 4.0 nM [^3H]-MLA. The incubations are terminated by rapid vacuum filtration through Whatman GF/B glass filter paper mounted on a 48 well Brandel cell harvester. Filters are pre-soaked in 50 mM Tris HCl pH 7.0-0.05% polyethylenimine. The filters are rapidly washed two times with 5 mL aliquots of cold 0.9% saline and then counted for radioactivity by liquid scintillation spectrometry.
Data Analysis. In competition binding studies, the inhibition constant (Ki) was calculated from the concentration dependent inhibition of [^3H]-MLA binding obtained from non-linear regression fitting program according to the Cheng-Prusoff equation (Cheng, Y. C. and Prussoff, W. H., Biochem. Pharmacol., 22, p. 3099-3108, 1973). Hill coefficients were obtained using non-linear regression (GraphPad Prism sigmoidal dose-response with variable slope).
`O=C(NC1CC2CCN(C2)C1)c1ccc(Cl)cc1` (racemic) [Example 3 (racemic), Exo-N-[1-azabicyclo[3.2.1]oct-3-yl]-4-chlorobenzamide 4-methylbenzenesulfonate] showed a pKi of 6.94. In turn, `O=C(N[C@H]1CN2CCC1CC2)c1ccc(Cl)cc1` [Example 1(a)] showed a pKi of 7.59.

In turn, `C[C@H]1[C@H](NC(=O)c2ccc(Cl)cc2)C2CCN1CC2` [Example 1(b)(i), 4-chloro-N-[(2S,3R)-2-methyl-1-azabicyclo[2.2.2]oct-3-yl]benzamide 4-methylbenzenesulfonate] gave a pKi of 6.85 to 7.19. In the case of `O=C(N[C@@H]1C[C@H]2CCN(C2)C1)c1ccc(Cl)cc1` [Example 3 (3R, 5R), (3R,5R)-N-(1-azabicyclo[3.2.1]oct-3-yl)-4-chlorobenzamide 4-methylbenzenesulfonate] it was 7.74. In the case of `O=C(N[C@H]1C[C@@H]2CCN(C2)C1)c1ccc(Cl)cc1` [Example 3 (3S, 5S), (3S,5S)-N-(1-azabicyclo[3.2.1]oct-3-yl)-4-chlorobenzamide 4-methylbenzenesulfonate] it was below 6.00.
